# Data published in patent US8815875B2 (Merck Sharp & Dohme Corp., priority 2008, dated 2014).
# Target: FABP4 (Homo sapiens, UniProt P15090)
# Assay: TdF (Temperature Dependence Fluorescence) assay, thermal shift, FABP4
# Type: binding
# Conditions: not given
# Outline: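 Binding measured as ΔTm versus protein alone; binding constants derived by nonlinear fitting with ΔHL set to −7 kcal/mol and ΔCpL to zero.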
# FABP4, sequence (P15090 whole entry, species assumed): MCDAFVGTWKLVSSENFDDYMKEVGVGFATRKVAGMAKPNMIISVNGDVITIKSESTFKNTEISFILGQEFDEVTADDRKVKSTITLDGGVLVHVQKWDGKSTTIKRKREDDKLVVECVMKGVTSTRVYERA
SMILES,FABP4 TdF Kd,Kd [nM]
O=c1cc(COc2cccc(Cl)c2C2CCC2)[nH]c2nc(-c3ccccc3)nn12 [26-3],B (0.5 ≦ B < 0.001 μM),
O=c1cc(COc2csc(C(F)(F)F)c2)[nH]c2nc(-c3ccccc3)nn12 [1-5],B (0.5 ≦ B < 0.001 μM),
CC1(C)CCCC(OCc2cc(=O)n3nc(-c4ccccc4)nc3[nH]2)C1 (stereo not shown) [1-152],B (0.5 ≦ B < 0.001 μM),
O=c1cc(COc2cccc(Cl)c2C2CC2)[nH]c2nc(-c3ccccc3)nn12 [20-2],B (0.5 ≦ B < 0.001 μM),
Cc1c(Cl)cccc1N(C)Cc1cc(=O)n2nc(-c3ccccc3)nc2[nH]1 [6-4],B (0.5 ≦ B < 0.001 μM),
O=c1cc(CN2CCc3c(Br)cccc32)[nH]c2nc(-c3ccccc3)nn12 [1-17],B (0.5 ≦ B < 0.001 μM),
"O=C(NCC1(CO)CCC1)c1c(Cl)cccc1OCc1cc(=O)n2nc(-c3ccccc3)nc2[nH]1 [47-30, 2-chloro-N-((1-(hydroxymethyl)cyclobutyl)methyl)-6-((7-oxo-2-phenyl-4,7-dihydro-[1,2,4]triazolo[1,5-a]pyrimidin-5-yl)methoxy)benzamide]",B (0.5 ≦ B < 0.001 μM),
O=C(NCC1(CO)CCC1)C1(OCc2cc(=O)n3nc(-c4ccccc4)nc3[nH]2)CCCCC1 [48-11],,≤ 1
O=C(N1CCc2ccc(Cl)cc21)C1(OCc2cc(=O)n3nc(-c4ccccc4)nc3[nH]2)CCCCC1 [48-64],B (0.5 ≦ B < 0.001 μM),
C#CC1(NC(=O)C2(OCc3cc(=O)n4nc(-c5ccccc5)nc4[nH]3)CCCCC2)CCCCC1 [48-41],B (0.5 ≦ B < 0.001 μM),
CCc1ccc(OCc2cc(=O)n3nc(C4CCC4)nc3[nH]2)cc1 [8-6],,> 500
O=c1cc(COc2ccc(Br)cc2)[nH]c2nc(-c3ccccc3)nn12 [1-61],,> 500
O=c1cc(COc2ccccc2OC(F)(F)F)[nH]c2nc(-c3ccccc3)nn12 [1-18],B (0.5 ≦ B < 0.001 μM),
Cn1cc2cccc(NCc3cc(=O)n4nc(-c5ccccc5)nc4[nH]3)c2n1 [1-105],,> 500
Cn1nc(C(F)(F)F)cc1OCc1cc(=O)n2nc(-c3ccccc3)nc2[nH]1 [1-22],,> 500
O=c1cc(COc2ccccn2)[nH]c2nc(-c3ccccc3)nn12 [1-47],,> 500
O=c1cc(COc2ccc(Br)c(Cl)c2)[nH]c2nc(-c3ccccc3)nn12 [1-8],,> 500
CN1CCC(OCc2cc(=O)n3nc(-c4ccccc4)nc3[nH]2)CC1 [1-45],,> 500
CN(Cc1cc(=O)n2nc(-c3ccccc3)nc2[nH]1)c1cccnc1Br [1-51],,> 500

SMILES,FABP4 TdF Kd,Kd [nM]
"O=C(N1CCS(=O)(=O)CC1)C1(OCc2cc(=O)n3nc(-c4ccccc4)nc3[nH]2)CCCCC1 [48-4, 4-[[1-[(4,7-dihydro-7-oxo-2-phenyl[1,2,4]triazolo[1,5-a]pyrimidin-5-yl)methoxy]cyclohexyl]carbonyl]thiomorpholine, 1,1-dioxide]",,> 500
O=c1cc(COC2CCCCC2)[nH]c2nc(-c3ccccc3)nn12 [1-21],B (0.5 ≦ B < 0.001 μM),
O=c1cc(CN2CCC(Cc3ccccc3F)C2)[nH]c2nc(-c3ccccc3)nn12 (stereo not shown) [1-92],,> 500
"O=C(NC1(CO)CCCC1)c1c(Cl)cccc1OCc1cc(=O)n2nc(-c3ccccc3)nc2[nH]1 [47-17, 2-chloro-N-(1-(hydroxymethyl)cyclopentyl)-6-((7-oxo-2-phenyl-4,7-dihydro-[1,2,4]triazolo[1,5-a]pyrimidin-5-yl)methoxy)benzamide]",B (0.5 ≦ B < 0.001 μM),
COc1ccccc1C1(CNC(=O)C2(OCc3cc(=O)n4nc(-c5ccccc5)nc4[nH]3)CCCCC2)CCC1 [48-57],B (0.5 ≦ B < 0.001 μM),
O=c1cc(COC2CCNCC2)[nH]c2nc(-c3ccccc3)nn12 [1-42],,> 500
O=c1c(Cl)c(CN2CCCC2Cc2ccncn2)[nH]c2nc(-c3ccccc3)nn12 (stereo not shown) [24-6],,> 500
CCc1ccc(OCc2cc(=O)n3nc(CO)nc3[nH]2)cc1 [8-8],,> 500
"O=C(NC1(c2cccc(Cl)c2)CC1)C1(OCc2cc(=O)n3nc(-c4ccccc4)nc3[nH]2)CCCCC1 [48-9, N-(1-(3-chlorophenyl)cyclopropyl)-1-((7-oxo-2-phenyl-4,7-dihydro-[1,2,4]triazolo[1,5-a]pyrimidin-5-yl)methoxy)cyclohexanecarboxamide]",,≤ 1
O=c1nc(SCc2cccc(Cl)c2Cl)[nH]c2nc(-c3ccccc3)nn12 [51-4],,> 500
O=c1cc(COc2cccc(Cl)c2)[nH]c2nc(-c3ccccc3)nn12 [1-88],B (0.5 ≦ B < 0.001 μM),
CC1(C)CCC(OCc2cc(=O)n3nc(-c4ccccc4)nc3[nH]2)CC1 [1-147],B (0.5 ≦ B < 0.001 μM),
O=C(NC1(c2ccccc2Cl)CC1)C1(OCc2cc(=O)n3nc(-c4ccccc4)nc3[nH]2)CCCCC1 [48-8],,≤ 1
O=c1cc(CSc2cccc(Cl)c2C2CC2)[nH]c2nc(-c3ccccc3)nn12 [52-4],,≤ 1
O=c1cc(COc2cccc(Cl)c2CO)[nH]c2nc(-c3ccccc3)nn12 [30-2],B (0.5 ≦ B < 0.001 μM),
O=C(NCC1CCC1)c1ccccc1OCc1cc(=O)n2nc(-c3ccccc3)nc2[nH]1 [47-56],B (0.5 ≦ B < 0.001 μM),
O=C(NC1CCCCC1)c1ccccc1OCc1cc(=O)n2nc(-c3ccccc3)nc2[nH]1 [47-63],B (0.5 ≦ B < 0.001 μM),
"O=C(NC1(CO)CCOCC1)c1c(Cl)cccc1OCc1cc(=O)n2nc(-c3ccccc3)nc2[nH]1 [47-21, 2-chloro-N-(4-(hydroxymethyl)tetrahydro-2H-pyran-4-yl)-6-((7-oxo-2-phenyl-4,7-dihydro-[1,2,4]triazolo[1,5-a]pyrimidin-5-yl)methoxy)benzamide]",B (0.5 ≦ B < 0.001 μM),
CN(CC1(CO)CCC1)C(=O)C1(OCc2cc(=O)n3nc(-c4ccccc4)nc3[nH]2)CCCCC1 [48-46],B (0.5 ≦ B < 0.001 μM),

SMILES,FABP4 TdF Kd,Kd [nM]
O=c1cc(COc2cccc3c2CCC3)[nH]c2nc(-c3ccccc3)nn12 [1-6],B (0.5 ≦ B < 0.001 μM),
Cc1cc(N)n(C(=O)c2c(Cl)cccc2OCc2cc(=O)n3nc(-c4ccccc4)nc3[nH]2)n1 [47-51],,≤ 1
C=CCc1ccc(Cl)cc1OCc1cc(=O)n2nc(-c3ccccc3)nc2[nH]1 [42-4],B (0.5 ≦ B < 0.001 μM),
Cc1c(Cl)cccc1OCc1[nH]c2nc(-c3ccccc3)nn2c(=O)c1Br [2-1],B (0.5 ≦ B < 0.001 μM),
CC1(C)CN(C(=O)C2(OCc3cc(=O)n4nc(-c5ccccc5)nc4[nH]3)CCCCC2)CCO1 [48-25],B (0.5 ≦ B < 0.001 μM),
O=c1ccccn1Cc1cc(=O)n2nc(-c3ccccc3)nc2[nH]1 [1-48],,> 500
O=c1c(Cl)c(COc2csc(C(F)(F)F)c2)[nH]c2nc(-c3ccccc3)nn12 [24-3],B (0.5 ≦ B < 0.001 μM),
Cn1ccc(NC(=O)c2ccccc2OCc2cc(=O)n3nc(-c4ccccc4)nc3[nH]2)n1 [47-57],,> 500
CCc1ccc(OCc2cc(=O)n3nc(-c4ccccc4)nc3[nH]2)c(OC)c1 [1-69],B (0.5 ≦ B < 0.001 μM),
Cc1c(Cl)cccc1NC(=O)c1cc(=O)n2nc(-c3ccccc3)nc2[nH]1 [11-3],,> 500
O=C(NCC1(CO)CC1)c1ccccc1OCc1cc(=O)n2nc(-c3ccccc3)nc2[nH]1 [47-65],B (0.5 ≦ B < 0.001 μM),
"O=C(NCC1CCC1)c1c(Cl)cccc1OCc1cc(=O)n2nc(-c3ccccc3)nc2[nH]1 [47-5, 2-chloro-N-(cyclobutylmethyl)-6-((7-oxo-2-phenyl-4,7-dihydro-[1,2,4]triazolo[1,5-a]pyrimidin-5-yl)methoxy)benzamide]",B (0.5 ≦ B < 0.001 μM),
CCC1(OCc2cc(=O)n3nc(-c4ccccc4)nc3[nH]2)CCCCC1 [1-96],,> 500
CC1CC(OCc2cc(=O)n3nc(-c4ccccc4)nc3[nH]2)CC(C)(C)C1 (stereo not shown) [1-99],B (0.5 ≦ B < 0.001 μM),
COC(=O)C1(NC(=O)C2(OCc3cc(=O)n4nc(-c5ccccc5)nc4[nH]3)CCCCC2)CCCCC1 [48-53],B (0.5 ≦ B < 0.001 μM),
Cc1ccc(OCc2cc(=O)n3nc(-c4ccccc4)nc3[nH]2)cc1C [1-63],B (0.5 ≦ B < 0.001 μM),
CCc1ccc(OCc2cc(=O)n3nc(C4CC4)nc3[nH]2)cc1 [8-12],,> 500
COc1ccc(Cl)cc1NCc1cc(=O)n2nc(C(F)(F)F)nc2[nH]1 [5-6],,> 500
O=C(NCC1(O)CCCC1)C1(OCc2cc(=O)n3nc(-c4ccccc4)nc3[nH]2)CCCCC1 [48-60],B (0.5 ≦ B < 0.001 μM),

# Target: FABP5 (Homo sapiens, UniProt Q01469)
# Assay: TdCD (Temperature-dependent Circular Dichroism) assay, FABP5
# Type: binding
# Conditions: T=20° C.; compounds tested at 50 μM and 25 μM
# Text: [formula] (see Brandts et al and Mayhood et al, shown above) where ΔHL (T) is the van't Hoff enthalpy of ligand binding at temperature T and ΔCpL is the heat capacity upon ligand binding. For simplicity, the ΔCpL and ΔHL (T) were set to zero and −7 kcal/mol respectively. […] TdCD (Temperature-dependent Circular Dichroism) Assay for FABP3/4/5
# JASCO 810 spectropolarimeter was used to measure Circular Dichroism (CD) spectra and temperature-dependent protein unfolding profiles. The instrument is equipped with a 6-cell piezoelectric temperature controller. Ellipticity was monitored at 226 nm as a function of temperature with a 1 mm path length cell. The scan rate was 1° C./min with a 4 s response time and 30 s equilibration between measurements.
# 10 mM stocks of individual compounds were made in 100% DMSO. […] DMSO was added to protein-alone (apo) samples to 1% to compensate for DMSO amounts in protein+ligand samples.
# Briefly, the To (midpoint of unfolding for the unliganded protein) was calculated from best fit of the unfolding data to the equation below:
# [formula] Where, Yobs is the observed ellipticity value at any temperature T, Yn and Yu are the predicted ellipticity values for fully folded and unfolded species, respectively, mn and mu are slope correction for changes in Yn and Yu with respect to changes in temperature. T0 is the midpoint temperature at which the unliganded protein unfolds and ΔHu and ΔCpu are the heat of unfolding and heat capacity of unfolding, respectively for the unliganded species.
# In presence of ligand, the midpoint temperature (Tm) defines where the equilibrium concentrations of unfolded and folded species are equal. Incorporation of the unliganded free energy of binding and subsequent thermodynamic substitution yielded the binding constant of the ligand at the Tm value of unfolding:
# [formula] where, T0 is the midpoint of unfolding for unliganded protein and Tm is the midpoint of unfolding in presence of ligand. [LTm] is free ligand at Tm.
# Based on estimates for enthalpy of binding, ΔHL (estimated to be −7 kcal/mol) and ligand binding heat capacity ΔCpL (set to be zero), the ligand binding association constant (KL) at temperature T=20° C. were calculated as below.
# FABP5, sequence (Q01469 whole entry, species assumed): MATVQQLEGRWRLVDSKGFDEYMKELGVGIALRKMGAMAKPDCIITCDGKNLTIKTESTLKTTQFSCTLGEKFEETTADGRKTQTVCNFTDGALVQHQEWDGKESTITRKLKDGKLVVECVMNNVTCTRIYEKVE
row,SMILES,Kd [nM]
1,O=c1cc(COc2cccc(Cl)c2C2CCC2)[nH]c2nc(-c3ccccc3)nn12 [26-3],< 500
2,O=c1cc(COc2csc(C(F)(F)F)c2)[nH]c2nc(-c3ccccc3)nn12 [1-5],< 500
3,CC1(C)CCCC(OCc2cc(=O)n3nc(-c4ccccc4)nc3[nH]2)C1 (stereo not shown) [1-152],< 500
4,O=c1cc(COc2cccc(Cl)c2C2CC2)[nH]c2nc(-c3ccccc3)nn12 [20-2],< 500
5,Cc1c(Cl)cccc1N(C)Cc1cc(=O)n2nc(-c3ccccc3)nc2[nH]1 [6-4],> 500
6,O=c1c(Cl)c(COc2cccc(Cl)c2C2CC2)[nH]c2nc(-c3ccccc3)nn12 [24-1],< 500
7,O=c1cc(CN2CCc3c(Br)cccc32)[nH]c2nc(-c3ccccc3)nn12 [1-17],> 500
